# Measured values: ChEMBL document CHEMBL1201862, “PubChem BioAssay data set” (2004)
# Activity calls are given as the source filed them.
# Experiments:
# [1] = molecular target: T1, Oxysterols receptor LXR-beta (Homo sapiens, UniProt P55055); format: functional, cell-based;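 further: agonist activity at LXR measured by a cell-based luminescence readout across a dose range, run as a counterscreen for daf-12 agonists; HEK293 cells with Gal4-LXR fusion and GAL4-driven luciferase reporter; potency for activation of Gal4-LXR reporter so compounds are agonists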
# T1 sequence (P55055 whole entry): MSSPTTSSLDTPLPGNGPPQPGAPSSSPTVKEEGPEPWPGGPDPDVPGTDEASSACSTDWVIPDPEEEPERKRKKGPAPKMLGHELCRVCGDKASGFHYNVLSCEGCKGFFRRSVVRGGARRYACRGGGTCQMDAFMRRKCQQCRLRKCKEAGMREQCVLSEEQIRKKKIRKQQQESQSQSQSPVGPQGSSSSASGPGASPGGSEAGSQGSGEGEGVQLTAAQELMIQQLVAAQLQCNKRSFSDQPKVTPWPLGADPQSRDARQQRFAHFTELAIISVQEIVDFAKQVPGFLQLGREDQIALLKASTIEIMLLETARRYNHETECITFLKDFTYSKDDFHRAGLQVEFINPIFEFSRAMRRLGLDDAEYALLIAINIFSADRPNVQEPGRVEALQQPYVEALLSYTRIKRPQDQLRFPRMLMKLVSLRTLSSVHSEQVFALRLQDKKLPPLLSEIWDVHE
# Mu-type opioid receptor = Mu-type opioid receptor (Homo sapiens, UniProt P35372); format: functional, cell-based;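 further: U2OS cells with beta-arrestin recruitment to OPRM1 by beta-gal complementation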
# [2] = molecular target: T2, Heat shock factor protein 1 (Mus musculus, UniProt P38532); test: decrease of HSF1-responsive luciferase luminescence – cell-based, NIH3T3, dose retest, confirmation (AID 2382); format: functional;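 further: NIH3T3 fibroblasts with HSF1-driven luciferase reporter stressed by proteasome inhibitor MG132; luminescence from HSF1-driven luciferase expression after 8 hours of MG132 stress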
# T2 sequence (P38532 whole entry): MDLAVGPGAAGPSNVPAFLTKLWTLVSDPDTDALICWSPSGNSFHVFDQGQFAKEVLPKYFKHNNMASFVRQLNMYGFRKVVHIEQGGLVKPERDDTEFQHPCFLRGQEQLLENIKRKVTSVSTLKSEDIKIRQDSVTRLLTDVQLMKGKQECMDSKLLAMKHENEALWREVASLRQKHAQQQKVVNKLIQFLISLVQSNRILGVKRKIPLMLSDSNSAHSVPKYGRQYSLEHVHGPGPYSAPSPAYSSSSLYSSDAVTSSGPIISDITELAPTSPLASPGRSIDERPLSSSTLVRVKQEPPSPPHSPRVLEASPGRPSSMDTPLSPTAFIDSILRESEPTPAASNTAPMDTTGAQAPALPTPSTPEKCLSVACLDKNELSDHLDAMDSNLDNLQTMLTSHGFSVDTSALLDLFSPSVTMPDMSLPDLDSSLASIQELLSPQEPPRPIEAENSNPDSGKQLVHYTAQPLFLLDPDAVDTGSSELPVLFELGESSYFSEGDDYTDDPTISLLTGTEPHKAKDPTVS
# Paired box protein Pax-8 = Paired box protein Pax-8 (Homo sapiens, UniProt Q06710); test: PAX8 transcriptional activity inhibition in RMG-I – RMG-I cells, luciferase, cherry-pick, dose response (AID 687027); format: functional, cell-based;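 further: luciferase reporter driven by Pax8 target thyroperoxidase promoter measured by SteadyGlo luminescence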
# [3] = general cell-killing toxicity readout – plate reader, dry powder samples, cytotoxicity control for PAX8 inhibitor project, dose response (AID 743021); format: functional, cell-based
# [4] = tested on: Streptococcus sp. 'group A'; test: Streptococcus pyogenes SK(-)GAS viability under kanamycin – luminescence, BacTiterGlo, confirmation, counter-screen for streptokinase expression inhibitor project, dose response (AID 1900); format: functional, organism-based
# [5] = molecular target: T3, Replicative DNA helicase DnaB (Mycobacterium tuberculosis, UniProt P9WMR3); test: DnaB intein splicing inhibitors, dose response, biochemical, cell-free fluorescence (AID 449749); format: functional
# T3 sequence (P9WMR3 whole entry): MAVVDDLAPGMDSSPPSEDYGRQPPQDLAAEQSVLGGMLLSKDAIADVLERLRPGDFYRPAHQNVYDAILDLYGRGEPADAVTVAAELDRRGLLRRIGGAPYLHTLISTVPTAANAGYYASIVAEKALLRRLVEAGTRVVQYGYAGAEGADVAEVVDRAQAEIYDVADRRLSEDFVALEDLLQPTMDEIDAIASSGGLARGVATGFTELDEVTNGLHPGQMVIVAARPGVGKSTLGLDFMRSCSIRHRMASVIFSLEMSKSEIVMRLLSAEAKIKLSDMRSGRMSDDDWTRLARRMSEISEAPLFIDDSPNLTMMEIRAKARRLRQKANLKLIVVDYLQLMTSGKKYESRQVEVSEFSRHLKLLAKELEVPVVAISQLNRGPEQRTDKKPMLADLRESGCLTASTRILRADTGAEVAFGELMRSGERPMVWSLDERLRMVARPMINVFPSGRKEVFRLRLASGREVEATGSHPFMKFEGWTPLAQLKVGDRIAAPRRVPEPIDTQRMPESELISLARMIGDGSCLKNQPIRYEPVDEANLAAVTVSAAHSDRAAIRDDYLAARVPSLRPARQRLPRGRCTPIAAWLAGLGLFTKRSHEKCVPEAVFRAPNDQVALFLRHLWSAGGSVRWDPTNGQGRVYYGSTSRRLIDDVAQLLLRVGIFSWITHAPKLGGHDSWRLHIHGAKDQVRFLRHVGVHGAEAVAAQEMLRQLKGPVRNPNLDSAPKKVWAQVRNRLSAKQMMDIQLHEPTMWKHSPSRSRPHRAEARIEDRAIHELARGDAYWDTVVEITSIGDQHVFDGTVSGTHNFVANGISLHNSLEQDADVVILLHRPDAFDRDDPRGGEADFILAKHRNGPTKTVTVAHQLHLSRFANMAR
# [6] = Trypanosoma cruzi growth suppression in host cells – NIH3T3 host cells, beta-gal luminescence, confirmation (AID 2044); format: functional, cell-based;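 further: intracellular parasites grown in NIH/3T3 mouse fibroblasts as host cells; luminescent beta-galactosidase reporter signal from transgenic T. cruzi replicating inside host cells; inhibitors lower the luminescence signal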
# [7] = alpha-synuclein stem-loop luciferase translation blockers – H4 neuroglioma cells, luminescence, confirmation (AID 1988); format: functional, cell-based
# [8] = molecular target: 5-hydroxytryptamine receptor 2A (Mus musculus, UniProt P35363); format: functional, cell-based;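 further: CHO-K1 cells with tagged receptor and beta-arrestin; agonist potency measured as compound-induced activation of the receptor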
# Streptococcus = test: GAS UMAA2166 growth inhibition – luminescence, BacTiterGlo, counter-screen for streptokinase expression inhibitor project, dose response (AID 1915); format: functional, organism-based;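 further: potency for reduction of bacterial viability or growth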
# [9] = Luminescence Cell-Based Dose Response HTS to Identify Inhibitors of 5'UTR Stem-Loop Driven Prion Protein mRNA Translation in H4 Neuroglioblastoma Cells. [Related pubchem assays: 1827 (Project Summary), 1813 (Primary HTS)]; format: functional
# [10] = luciferase reporter signal suppression in cells – H4 neuroglioma cells, luminescence, dose response (AID 1990); format: functional, cell-based
# Protein RecA = molecular target: T4, Protein RecA (Mycobacterium tuberculosis, UniProt P9WHJ3); test: Fluorescence Cell-Free Homogeneous Dose Retest to Identify Inhibitors of RecA-Intein Splicing Activity. [Related pubchem assays (depositor defined):AID2097, AID2223, AID489010, AID492950]; format: functional
# T4 sequence (P9WHJ3 whole entry): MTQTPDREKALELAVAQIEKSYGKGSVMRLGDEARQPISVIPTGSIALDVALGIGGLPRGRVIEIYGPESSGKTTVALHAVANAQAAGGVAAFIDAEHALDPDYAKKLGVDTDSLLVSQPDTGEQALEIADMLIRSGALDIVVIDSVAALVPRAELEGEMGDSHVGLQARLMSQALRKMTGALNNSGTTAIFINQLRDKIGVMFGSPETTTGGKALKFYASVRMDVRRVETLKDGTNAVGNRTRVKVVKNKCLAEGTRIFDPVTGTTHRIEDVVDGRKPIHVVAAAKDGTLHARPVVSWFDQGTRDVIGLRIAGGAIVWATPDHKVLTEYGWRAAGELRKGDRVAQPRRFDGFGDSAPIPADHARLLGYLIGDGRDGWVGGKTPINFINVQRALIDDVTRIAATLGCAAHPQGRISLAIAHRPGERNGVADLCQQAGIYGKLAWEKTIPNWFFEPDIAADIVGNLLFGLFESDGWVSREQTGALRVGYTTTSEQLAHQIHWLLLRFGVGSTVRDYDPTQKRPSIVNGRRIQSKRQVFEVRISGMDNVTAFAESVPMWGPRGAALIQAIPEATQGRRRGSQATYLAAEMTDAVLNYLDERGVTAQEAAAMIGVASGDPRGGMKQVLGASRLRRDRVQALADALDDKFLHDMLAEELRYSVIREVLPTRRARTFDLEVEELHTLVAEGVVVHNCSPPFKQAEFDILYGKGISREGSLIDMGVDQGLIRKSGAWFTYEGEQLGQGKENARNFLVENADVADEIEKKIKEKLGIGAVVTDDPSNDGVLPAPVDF
# Streptokinase A = molecular target: T5, Streptokinase A (Streptococcus pyogenes serotype M1, UniProt P10520); test: viability-normalized secreted streptokinase activity reduction – plasminogen activation absorbance, OD405, dose response (AID 1914); format: functional, Streptococcus pyogenes M1 GAS;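 further: secreted streptokinase activity via plasminogen activation per viability signal from cell pellet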
# T5 sequence (P10520 whole entry): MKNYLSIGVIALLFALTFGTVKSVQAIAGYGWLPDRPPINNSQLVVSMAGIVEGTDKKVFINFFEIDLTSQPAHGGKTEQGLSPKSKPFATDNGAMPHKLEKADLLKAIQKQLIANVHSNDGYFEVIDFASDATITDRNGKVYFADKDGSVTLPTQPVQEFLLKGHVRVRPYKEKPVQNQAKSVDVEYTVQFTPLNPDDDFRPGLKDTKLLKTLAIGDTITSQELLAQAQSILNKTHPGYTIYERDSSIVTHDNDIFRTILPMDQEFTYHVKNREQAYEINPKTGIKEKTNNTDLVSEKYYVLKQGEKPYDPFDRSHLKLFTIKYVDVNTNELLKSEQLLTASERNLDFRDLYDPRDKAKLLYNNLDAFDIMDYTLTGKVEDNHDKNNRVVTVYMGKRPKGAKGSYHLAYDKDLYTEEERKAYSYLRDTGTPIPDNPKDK
# [11] = molecular target: Induced myeloid leukemia cell differentiation protein Mcl-1 (Homo sapiens, UniProt Q07820); format: functional
# fMet-Leu-Phe receptor = fMet-Leu-Phe receptor (Homo sapiens, UniProt P21462); test: formyl peptide receptor binders – dose response (AID 519); format: functional
# [12] = molecular target: COUP transcription factor 2 (Homo sapiens, UniProt P24468); test: Luminescence-based cell-based high throughput dose response assay to identify inhibitors of COUP-TFII (NR2F2).; format: functional;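 further: HEK293 cells transiently cotransfected with COUP-TFII expression vector and reporter; luciferase reporter luminescence driven by COUP-TFII from the pX2-168 reporter plasmid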
# Chain of COUP transcription factor 2 (P24468 whole entry): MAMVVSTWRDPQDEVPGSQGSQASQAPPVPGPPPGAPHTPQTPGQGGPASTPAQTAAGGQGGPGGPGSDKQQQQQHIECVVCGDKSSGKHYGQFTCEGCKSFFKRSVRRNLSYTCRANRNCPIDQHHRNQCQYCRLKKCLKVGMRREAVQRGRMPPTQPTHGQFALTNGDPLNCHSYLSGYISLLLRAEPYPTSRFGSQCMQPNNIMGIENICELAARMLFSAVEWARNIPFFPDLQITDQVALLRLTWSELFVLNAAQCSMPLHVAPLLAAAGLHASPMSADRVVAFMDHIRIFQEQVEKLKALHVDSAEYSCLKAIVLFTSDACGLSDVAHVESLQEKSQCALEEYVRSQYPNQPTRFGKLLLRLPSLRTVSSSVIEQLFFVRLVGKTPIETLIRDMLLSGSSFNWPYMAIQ
# Chain of 5-hydroxytryptamine receptor 2A (P35363 whole entry): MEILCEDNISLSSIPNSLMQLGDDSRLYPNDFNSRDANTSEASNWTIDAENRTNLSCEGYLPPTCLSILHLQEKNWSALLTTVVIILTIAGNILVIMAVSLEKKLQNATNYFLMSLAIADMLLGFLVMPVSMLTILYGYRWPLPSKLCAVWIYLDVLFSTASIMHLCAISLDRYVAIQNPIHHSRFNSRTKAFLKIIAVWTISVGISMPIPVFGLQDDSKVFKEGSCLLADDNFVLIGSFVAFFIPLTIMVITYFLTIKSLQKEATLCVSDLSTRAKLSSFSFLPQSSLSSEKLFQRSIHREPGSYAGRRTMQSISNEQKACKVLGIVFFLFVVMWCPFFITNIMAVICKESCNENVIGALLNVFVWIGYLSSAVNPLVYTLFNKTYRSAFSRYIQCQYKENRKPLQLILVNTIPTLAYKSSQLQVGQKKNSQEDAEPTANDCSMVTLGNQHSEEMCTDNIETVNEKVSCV
# Chain of fMet-Leu-Phe receptor (P21462 whole entry): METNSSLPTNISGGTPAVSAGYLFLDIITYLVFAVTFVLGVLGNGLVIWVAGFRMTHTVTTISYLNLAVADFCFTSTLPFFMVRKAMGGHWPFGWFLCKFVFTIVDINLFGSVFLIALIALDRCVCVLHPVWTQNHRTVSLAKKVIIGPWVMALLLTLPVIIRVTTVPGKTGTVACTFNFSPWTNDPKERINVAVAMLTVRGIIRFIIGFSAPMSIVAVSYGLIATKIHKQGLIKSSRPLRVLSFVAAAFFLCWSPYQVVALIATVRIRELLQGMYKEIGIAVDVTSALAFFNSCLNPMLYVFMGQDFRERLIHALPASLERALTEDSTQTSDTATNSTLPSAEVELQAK
# Chain of Mu-type opioid receptor (P35372 whole entry): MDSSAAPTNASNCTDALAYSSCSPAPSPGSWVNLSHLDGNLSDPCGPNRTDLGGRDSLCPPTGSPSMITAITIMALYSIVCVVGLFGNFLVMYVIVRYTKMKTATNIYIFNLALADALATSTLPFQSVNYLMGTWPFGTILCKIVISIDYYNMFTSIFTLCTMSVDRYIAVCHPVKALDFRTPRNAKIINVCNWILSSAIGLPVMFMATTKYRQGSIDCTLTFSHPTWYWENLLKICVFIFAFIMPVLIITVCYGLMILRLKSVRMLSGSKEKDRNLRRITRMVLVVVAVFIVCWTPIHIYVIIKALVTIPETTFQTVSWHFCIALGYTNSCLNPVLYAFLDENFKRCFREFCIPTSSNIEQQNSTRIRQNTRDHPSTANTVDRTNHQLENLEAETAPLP
# Chain of Paired box protein Pax-8 (Q06710 whole entry): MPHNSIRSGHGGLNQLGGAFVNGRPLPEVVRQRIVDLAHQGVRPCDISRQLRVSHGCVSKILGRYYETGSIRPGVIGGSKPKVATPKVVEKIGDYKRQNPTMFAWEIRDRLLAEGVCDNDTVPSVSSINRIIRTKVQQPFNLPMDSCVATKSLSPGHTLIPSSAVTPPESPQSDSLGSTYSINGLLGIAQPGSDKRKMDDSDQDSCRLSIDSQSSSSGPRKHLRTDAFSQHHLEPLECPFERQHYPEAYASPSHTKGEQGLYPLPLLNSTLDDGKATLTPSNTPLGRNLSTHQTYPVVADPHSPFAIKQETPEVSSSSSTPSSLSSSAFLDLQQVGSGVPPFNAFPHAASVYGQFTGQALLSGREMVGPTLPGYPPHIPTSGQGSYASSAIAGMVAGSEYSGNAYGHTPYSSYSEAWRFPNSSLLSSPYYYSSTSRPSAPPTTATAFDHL
# Chain of Induced myeloid leukemia cell differentiation protein Mcl-1 (Q07820 whole entry): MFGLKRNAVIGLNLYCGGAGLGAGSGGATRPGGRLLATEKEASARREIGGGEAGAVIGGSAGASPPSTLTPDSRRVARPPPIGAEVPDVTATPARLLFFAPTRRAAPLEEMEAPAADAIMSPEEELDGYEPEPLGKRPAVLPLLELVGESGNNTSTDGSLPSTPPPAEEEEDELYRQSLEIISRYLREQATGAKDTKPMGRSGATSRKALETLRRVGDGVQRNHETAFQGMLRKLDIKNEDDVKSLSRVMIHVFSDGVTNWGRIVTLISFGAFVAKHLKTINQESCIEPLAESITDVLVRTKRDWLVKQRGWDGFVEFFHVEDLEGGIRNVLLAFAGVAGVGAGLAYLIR
smiles,measurement,setting,value
CCOC(=O)c1csc(-c2sccc2Br)n1,EC50,[1],> 67.6 µM (inactive)
Cc1cc(N/N=C/c2ccc(O)c(C)c2O)nc(-c2ccccc2O)n1,EC50,Mu-type opioid receptor,92.5 µM (inactive)
same,EC50,[2],3.71 µM (active)
same,AC50,Paired box protein Pax-8,4.54 µM (active)
same,AC50,[3],14.1 µM (active)
same,EC50,[4],4.48 µM (active)
same,AC50,[5],> 380 µM (inactive)
same,EC50,[6],1.1 µM (active)
same,EC50,[7],> 120 µM (not active)
same,EC50,[8],7.6 µM (active)
same,EC50,Streptococcus,8.71 µM (active)
same,EC50,[9],13.1 µM (active)
same,EC50,[10],> 60 µM (not active)
same,EC50,Protein RecA,> 380 µM (inconclusive)
same,EC50,Streptokinase A,> 150 µM (not active)
same,IC50,[11],3.3 µM (active)
COc1ccc(Cl)cc1-n1c(=S)sc2c(O)nc(SCC(=O)NCC3CCCO3)nc21 (centres undefined),Ki,fMet-Leu-Phe receptor,9.3 µM (active)
Cc1cccc(/C=C\c2nc(O)c3ccccc3n2)c1,EC50,[1],> 67.5 µM (inactive)
NC(=O)[C@H]1CC2(CC(c3cccc(NC(=O)COc4ccc(Cl)cc4)c3)=NO2)CN1C(=O)Cc1ccc([N+](=O)[O-])cc1 (some centres undefined),IC50,[12],5.32 µM (active)
